Results from the OPERA property sets (Mansouri et al. 2018).
Where a SMILES comes first, the peptide text is derived from it. [ ]: non-standard residue; d: D form. The star is where a group is joined. Orn = NCCC[CH](N)C(=O)O; Boc = CC(C)(C)OC(=O)*

Row | Structure (SMILES) | logP
1 | Clc1cccc(-c2c(Cl)cc(Cl)c(Cl)c2Cl)c1Cl | 7.25
2 | Cc1n[nH]c(C(=O)NC2CC2)c1[N+](=O)[O-] | 0.25
3 | OCC1CCC(n2cnc3cncnc32)O1 (stereo not drawn) | -0.47
4 | CCOc1ncnc2c1ncn2C1OC(CO)CC1F (stereo not drawn) | 0.8
5 | NC(=O)c1cc2ccccc2o1 | 1.54
6 | CCN(CC)C(=O)OCCCc1cccnc1 | 2.36
7 | O=C(CCn1ccnc1[N+](=O)[O-])NCCO | -1.08
8 | CCCOc1ccccc1NC(=O)OCCN1CCOCC1 | 2.78
9 | NC(=O)c1cc(-c2ccccc2)nnc1NCCN1CCOCC1 | 1.86
10 | CCC(=O)C(CS(=O)(=O)c1ccccc1)c1ccc(C)cc1 (stereo not drawn) | 2.7
11 | Cc1nc(Br)c([N+](=O)[O-])n1C | 0.87
12 | C1CCC2=NCCCN2CC1 | 1.38
13 | CC(C)(C)C(=O)C(C#N)=NNc1cc(C(F)(F)F)ccc1Cl | 5.31
14 | CCCCCOC(=O)C(C(=O)OCCCCC)=C1SCCS1 | 5.6
15 | CC1CC(C(=O)O)=C(C(=O)O)C(C)C1 (stereo not drawn) | 1.53
16 | CCC(=O)C(CS(=O)(=O)c1ccc(C)cc1)c1ccccc1 (stereo not drawn) | 2.45
17 | CC(=O)c1ccc(O)c2ncccc12 | 1.8
18 | CCCCCCC(C)(C)c1ccc(C2CC(O)CC3CCC(O)CC32)c(O)c1 (stereo not drawn) | 6.13
19 | O=C(O)c1cc(Oc2cc(C(F)(F)F)ccc2Cl)ccc1[N+](=O)[O-] | 3.7
20 | CCC(C)C(NC(=O)C(CCCN)NC(C)=O)C(=O)NC(C(N)=O)C(C)C (stereo not drawn) (Ac-[Orn]-Ile-Val-NH2; configuration not given here) | -0.43
21 | CC(C)N1C(=O)C(=O)c2ccccc2C1=O | 1.6

Row | Structure (SMILES) | logP
22 | COC(O)Cn1c([N+](=O)[O-])nc(Br)c1Br (stereo not drawn) | 1.02
23 | CC(=O)NC(Cc1ccccc1)C(=O)NC(CCC(=O)O)C(=O)NC(Cc1ccccc1)C(N)=O (stereo not drawn) (Ac-Phe-Glu-Phe-NH2; configuration not given here) | 0.65
24 | CN(C)N=Nc1ccc(S(=O)(=O)CCO)cc1 | 1.15
25 | O=[N+]([O-])C=C1NCCN1c1ccc(Cl)nc1 | -0.23
26 | Cc1n[nH]c(C(=O)N2CCCC2)c1[N+](=O)[O-] | 0.25
27 | CCCCOc1ccccc1NC(=O)OCCN1CCOCC1 | 3.25
28 | C=Cc1ncc([N+](=O)[O-])n1C | 0.62
29 | CCCCCCOc1ccccc1NC(=O)OCCN1CCOCC1 | 4.24
30 | FC(F)(F)c1ccccc1C1OCC2ON=C(c3ccccc3)C2CO1 (stereo not drawn) | 4.31
31 | CCOC(=O)C(CC)C(CO)Cc1cncn1C (stereo not drawn) | 0.73
32 | CC(=O)Nc1c(I)c(C(=O)NC(CO)CO)c(I)c(C(=O)NC(CO)CO)c1I | -2.27
33 | OCCOc1ccc(Cl)cc1 | 1.99
34 | CCCCCCOC(=O)n1cc(F)c(=O)[nH]c1=O | 2.04
35 | C#CCOc1c(Cl)cc(NC=NOCC#N)cc1Cl | 3
36 | CCCCOc1ccc(OCC(OC(=O)n2ccnc2)C(C)(C)C)cc1 (stereo not drawn) | 4.29
37 | CCOC(=O)CCC(C)n1nnc2ccccc21 (stereo not drawn) | 2.64
38 | Clc1ccc(-c2ccccc2)c(Cl)c1Cl | 5.86
39 | c1ccc(SCc2ccccc2CCCN2CCOCC2)cc1 | 3.8
40 | CSc1nc(Nc2ccc(Cl)cc2)nc(C(Cl)(Cl)Cl)n1 | 5.71
41 | Cc1n[nH]c(C(=O)NC2CCCCC2)c1[N+](=O)[O-] | 1.71
42 | O=c1n[n+]([O-])ccn1Cc1ccccc1 | 0.19

Row | Structure (SMILES) | logP
43 | O=C(Cc1ccccc1)Nc1cccc(C(F)(F)F)c1 | 3.84
44 | COc1cccc(N2CCN(CCN(C)C)C2=O)c1 | 1.76
45 | CCOC(=O)c1ccc(OCC(OC(=S)n2ccnc2)C(C)(C)C)cc1 (stereo not drawn) | 4.77
46 | CCN(CC)N=Nc1ccccc1C(N)=O | 2.96
47 | CCC1COC(Cn2cncn2)(c2ccc(NC(=O)c3ccc([N+](=O)[O-])cc3)cc2)O1 (stereo not drawn) | 2.17
48 | CCC(=O)C(CS(=O)(=O)c1ccc(C)cc1)c1ccc(Cl)cc1 (stereo not drawn) | 3.43
49 | CCCn1c(=O)c2[nH]c(-c3ccc(S(=O)(=O)NCCN(C)C)cc3)nc2n(CCC)c1=O | 3.32
50 | c1ccc(-c2ccc(C(c3ccccc3)n3ccnc3)cc2)cc1 (stereo not drawn) | 4.77
51 | Cc1cc(NC(=O)C2=C(O)c3ccccc3S(=O)(=O)N2C)no1 | 2.83
52 | O=c1[nH]c(Nc2ccccc2)nc2c1ncn2C1CC(O)C(CO)O1 (stereo not drawn) | 0.4
53 | CC(C)(C)OC(=O)NC(Cc1ccccc1)C(=O)NC(Cc1ccc(O)cc1)C(=O)O (stereo not drawn) (Boc-Phe-Tyr-OH; configuration not given here) | 2.79
54 | CCC(=O)C1(c2cccc(OC(=O)OC)c2)CCN(C)CC1 | 0.75
55 | O=[N+]([O-])C=C1SCCN1Cc1ccc(Cl)nc1 | 0.65
56 | COc1ccc(OCc2ccccc2CCCN2CCC(O)CC2)cc1 | 3.1
57 | CC(C)(C)C(=O)CC(C(O)C(C)(C)C)n1cncn1 (stereo not drawn) | 1.95
58 | O=[N+]([O-])c1ncn(CC(F)(F)CO)n1 | -0.21
59 | O=C(O)C(Cc1ccc(F)cc1)n1cccc1 (stereo not drawn) | 2.04
60 | CCN1C(=O)C(=O)c2c(OC)cc(OC)cc2C1=O | 1.23
61 | CCOC(=O)c1cccc2c1C(=O)C(=O)N(CC)C2=O | 1.31
62 | CC1CC2C3CCC4=CC(=O)C=CC4(C)C3(F)C(O)CC2(C)C1(O)C(=O)NCc1ccc([N+](=O)[O-])cc1 (stereo not drawn) | 3.44
63 | O=C(O)CCCCCCCc1ccccc1 | 4.09
